{
  "source": "paper PMC3781849",
  "about": "(Journal of Clinical Pharmacology, 2013)",
  "key": {"[1]": {"details": "earlier studies; cited from earlier work"}, "[2]": {"details": "cited from earlier work"}, "[3]": {"tested_on": "cells expressing all BCR-ABL mutants tested, including the T315I gatekeeper mutant", "details": "preclinical; includes T315I; cited from earlier work"}, "[4]": {"experiment": "Safety and tolerability in the ponatinib ± ketoconazole crossover study"}, "[5]": {"details": "rats; preclinical studies; cited from earlier work"}, "[6]": {"details": "monkeys; preclinical studies; cited from earlier work"}, "[7]": {"details": "single 45-mg oral dose of 14C-labeled ponatinib, healthy volunteers; cited from earlier work"}, "[8]": {"details": "for Cmax: geometric mean (%CV, n)"}, "[9]": {"details": "bosutinib + ketoconazole 400 mg once daily; cited from earlier work"}, "[10]": {"details": "dasatinib + ketoconazole 200 mg twice daily; cited from earlier work"}, "[11]": {"details": "nilotinib + ketoconazole 400 mg once daily; cited from earlier work"}, "[12]": {"details": "ponatinib alone, 2 of 23 subjects"}, "[13]": {"details": "ponatinib with ketoconazole, 2 of 23 subjects"}, "[14]": {"details": "ponatinib + ketoconazole vs ponatinib alone"}, "[15]": {"details": "ponatinib + ketoconazole vs ponatinib alone, from estimated mean ratio"}},
  "note": "Several values for one entry are separate records, joined by “and”; a condition that tells them apart may be missing. Identical values can stand only once. Entries after “also recorded” stand apart in the source; their conditions may differ. Like-named read-outs stand apart in the source and are kept apart here.",
  "data": [
    {"smiles": "Cc1ccc(C(=O)Nc2ccc(CN3CCNCC3)c(C(F)(F)F)c2)cc1C#Cc1cnc2cccnn12", "note": "[AP24567]", "values": [
      {"measurement": "Potency, less potent than ponatinib", "setting": "[1]", "value": 4, "unit": "fold"}
    ]},
    {"smiles": "Cc1ccc(C(=O)O)cc1C#Cc1cnc2cccnn12", "note": "[AP24600]", "values": [
      {"measurement": "Pharmacological activity", "setting": "[1]", "value": "pharmacologically inactive"}
    ]},
    {"smiles": "Cc1ccc(C(=O)Nc2ccc(CN3CCN(C)CC3)c(C(F)(F)F)c2)cc1C#Cc1cnc2cccnn12", "note": "[Ponatinib]", "values": [
      {"measurement": "Steady-state trough plasma concentration", "setting": "[2]; daily doses of 30 mg", "value": "> 40", "unit": "nM"},
      {"measurement": "Accumulation of AUC from first dose to steady-state", "setting": "[2]; once-daily ponatinib 45 mg", "value": "approximately 1.5 fold"},
      {"measurement": "Steady-state trough concentration, geometric mean", "setting": "[2]; once-daily ponatinib 45 mg", "value": "64 nM and 34.2 ng/mL"},
      {"measurement": "Dose proportionality of exposure (Cmax and AUC)", "setting": "[2]; patients, initial dose and steady-state, doses 2 to 60 mg", "value": "approximately dose-proportional"},
      {"measurement": "Time of maximum plasma levels", "setting": "[2]; patients, oral once-daily ponatinib, postdose", "value": "approximately 4 hours"},
      {"measurement": "Elimination half-life", "setting": "[2]; ponatinib 45 mg, patients", "value": "approximately 22 hours"},
      {"measurement": "Relation to maximum tolerated dose", "setting": "[2]; ponatinib 60 mg daily, phase 1 study", "value": "exceeded the maximum tolerated dose"},
      {"measurement": "Concentration sufficient to inhibit viability of cells expressing all BCR-ABL mutants tested and to suppress emergence of mutant clones", "setting": "[3]", "value": 40, "unit": "nM"},
      {"measurement": "Serious AEs", "setting": "[4]; both regimens", "value": "no serious AEs"},
      {"measurement": "Subjects with at least one drug-related AE", "setting": "[4]; both regimens", "value": "Nine"},
      {"measurement": "Vital sign, ECG, physical examination findings", "setting": "[4]; both regimens", "value": "No treatment-related or clinically significant vital sign, ECG, or physical examination findings"},
      {"measurement": "Subjects with at least one treatment-emergent adverse event", "setting": "[4]; of 23 subjects, both regimens, all mild", "value": "Eleven"},
      {"measurement": "Tolerability", "setting": "[4]; ponatinib 15 mg, both alone and in combination with ketoconazole", "value": "generally well tolerated"},
      {"measurement": "Increased lipase (TEAE)", "setting": "[4]; [12]", "value": 8.7, "unit": "%"},
      {"measurement": "Somnolence (TEAE)", "setting": "[4]; [12]", "value": 8.7, "unit": "%"},
      {"measurement": "Headache (TEAE)", "setting": "[4]; [13]", "value": 8.7, "unit": "%"},
      {"measurement": "Somnolence (TEAE)", "setting": "[4]; [13]", "value": 8.7, "unit": "%"},
      {"measurement": "Absolute oral bioavailability", "setting": "[5]", "value": 54, "unit": "%"},
      {"measurement": "Absolute oral bioavailability", "setting": "[6]", "value": 20, "unit": "%"},
      {"measurement": "Total radioactivity recovered in feces", "setting": "[7]", "value": 87, "unit": "%"},
      {"measurement": "Total radioactivity recovered in urine", "setting": "[7]", "value": 5, "unit": "%"},
      {"measurement": "AUC(0-inf)", "setting": "[8]; human, in vivo, 15 mg", "value": 472, "unit": "ng·h/mL"},
      {"measurement": "AUC(0-t)", "setting": "[8]; human, in vivo, 15 mg", "value": 414, "unit": "ng·h/mL"},
      {"measurement": "half-life", "setting": "[8]; human, in vivo, 15 mg", "value": 35.3, "unit": "h"},
      {"measurement": "Cmax", "setting": "[8]; human, in vivo, 15 mg, Cmax, ponatinib 15 mg alone", "value": 16.1, "unit": "ng/mL"},
      {"measurement": "Tmax", "setting": "[8]; human, in vivo, po, 15 mg", "value": "~6", "unit": "h"},
      {"measurement": "Cmax", "setting": "[8]; ponatinib 15 mg + ketoconazole 400 mg daily", "value": "23.6 (30.7, 22) ng/mL"},
      {"measurement": "Cmax", "setting": "[8]; ponatinib 15 mg alone", "value": "16.1 (36.0, 22) ng/mL"},
      {"measurement": "Effect of ketoconazole on t1/2 / terminal elimination", "setting": "[8]; [14]", "value": "not essentially affected; also recorded: did not affect"},
      {"measurement": "Effect of ketoconazole on tmax", "setting": "[8]; [14]", "value": "not affected; also recorded: did not affect"},
      {"measurement": "Increase in exposure, Cmax", "setting": "[8]; [14]", "value": 47, "unit": "%"},
      {"measurement": "Increase in exposure, AUC0–t", "setting": "[8]; [15]", "value": 70, "unit": "%"},
      {"measurement": "Increase in exposure, AUC0–∞", "setting": "[8]; [15]", "value": 78, "unit": "%"},
      {"measurement": "Time at which mean plasma concentrations reached a maximum", "setting": "[8]; single oral dose of 15 mg, independent of ketoconazole coadministration", "value": "5 to 6", "unit": "h"}
    ]},
    {"smiles": "COc1cc(Nc2c(C#N)cnc3cc(OCCCN4CCN(C)CC4)c(OC)cc23)c(Cl)cc1Cl", "note": "[bosutinib]", "values": [
      {"measurement": "Decrease in apparent clearance", "setting": "[9]", "value": 9, "unit": "fold"},
      {"measurement": "Increase in AUC0–t", "setting": "[9]", "value": 7.6, "unit": "fold"},
      {"measurement": "Increase in AUC0–∞", "setting": "[9]", "value": 8.6, "unit": "fold"},
      {"measurement": "Increase in Cmax", "setting": "[9]", "value": 5.2, "unit": "fold"},
      {"measurement": "Prolongation of t1/2", "setting": "[9]", "value": 22.8, "unit": "h"}
    ]},
    {"smiles": "Cc1nc(Nc2ncc(C(=O)Nc3c(C)cccc3Cl)s2)cc(N2CCN(CCO)CC2)n1", "note": "[dasatinib]", "values": [
      {"measurement": "Increase in AUC", "setting": "[10]", "value": 4.8, "unit": "fold"},
      {"measurement": "Increase in Cmax", "setting": "[10]", "value": 3.6, "unit": "fold"},
      {"measurement": "Prolongation of t1/2", "setting": "[10]", "value": 5.4, "unit": "h"}
    ]},
    {"smiles": "Cc1cn(-c2cc(NC(=O)c3ccc(C)c(Nc4nccc(-c5cccnc5)n4)c3)cc(C(F)(F)F)c2)cn1", "note": "[nilotinib]", "values": [
      {"measurement": "Decrease in apparent clearance", "setting": "[11]", "value": 2.5, "unit": "fold"},
      {"measurement": "Increase in AUC0–t", "setting": "[11]", "value": 1.8, "unit": "fold"},
      {"measurement": "Increase in AUC0–∞", "setting": "[11]", "value": 3, "unit": "fold"},
      {"measurement": "Increase in t1/2", "setting": "[11]", "value": 17.5, "unit": "h"}
    ]}
  ]
}
